Measurements from PubChem BioAssay AID2060902 (Molecular Pharmacology Branch, DTP, NCI, 2025).
Several values for one entry are separate records, joined by “and”; a condition that tells them apart may be missing. Identical values can stand only once.

Tested on: 485368-065-R3-J5-PDC spheroids with HUVEC/MSC, viability
Experiment: Anticancer human tumor 485368-065-R3-J5-PDC patient-derived pancreatic carcinoma cell line growth inhibition [RAS]
Details: for viability, T/C: stronger effect = lower value
Outline: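 Tumour cells grown as complex spheroids with HUVEC endothelial cells and mesenchymal stem cells, treated with RAS pathway inhibitor combinations. Each agent spans half-log steps from near clinical Cmax, or 10 microM where Cmax is unknown.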

[1] = curve of first compound, second compound 0.000949 µM
[2] = curve of first compound, second compound 0.003 µM
[3] = curve of first compound, second compound 0.00949 µM
[4] = curve of first compound, second compound 0.03 µM
[5] = curve of first compound, second compound 0.0949 µM
[6] = curve of first compound, second compound 0.3 µM
[7] = second compound 0.000949 µM, first compound 0.0316 µM
[8] = second compound 0.000949 µM, first compound 0.1 µM
[9] = second compound 0.000949 µM, first compound 0.316 µM
[10] = second compound 0.000949 µM, first compound 1 µM
[11] = second compound 0.000949 µM, first compound 3.16 µM
[12] = second compound 0.000949 µM, first compound 10 µM
[13] = second compound 0.003 µM, first compound 0.0316 µM
[14] = second compound 0.003 µM, first compound 0.1 µM
[15] = second compound 0.003 µM, first compound 0.316 µM
[16] = second compound 0.003 µM, first compound 1 µM
[17] = second compound 0.003 µM, first compound 3.16 µM
[18] = second compound 0.003 µM, first compound 10 µM
[19] = second compound 0.00949 µM, first compound 0.0316 µM
[20] = second compound 0.00949 µM, first compound 0.1 µM
[21] = second compound 0.00949 µM, first compound 0.316 µM
[22] = second compound 0.00949 µM, first compound 1 µM
[23] = second compound 0.00949 µM, first compound 3.16 µM
[24] = second compound 0.00949 µM, first compound 10 µM
[25] = second compound 0.03 µM, first compound 0.0316 µM
[26] = second compound 0.03 µM, first compound 0.1 µM
[27] = second compound 0.03 µM, first compound 0.316 µM
[28] = second compound 0.03 µM, first compound 1 µM
[29] = second compound 0.03 µM, first compound 3.16 µM
[30] = second compound 0.03 µM, first compound 10 µM
[31] = second compound 0.0949 µM, first compound 0.0316 µM
[32] = second compound 0.0949 µM, first compound 0.1 µM
[33] = second compound 0.0949 µM, first compound 0.316 µM
[34] = second compound 0.0949 µM, first compound 1 µM
[35] = second compound 0.0949 µM, first compound 3.16 µM
[36] = second compound 0.0949 µM, first compound 10 µM
[37] = second compound 0.3 µM, first compound 0.0316 µM
[38] = second compound 0.3 µM, first compound 0.1 µM
[39] = second compound 0.3 µM, first compound 0.316 µM
[40] = second compound 0.3 µM, first compound 1 µM
[41] = second compound 0.3 µM, first compound 3.16 µM
[42] = second compound 0.3 µM, first compound 10 µM
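Also: spheroids exposed to agents for seven days before readout.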

For `Cc1nc(N2CCC3(CC2)COC(C)C3N)c(CO)nc1Sc1ccnc(N)c1Cl` (stereo not given), the viability, T/C (compound 0.0316 µM) was 102% [middle of 4 runs], the viability, T/C (compound 0.1 µM) was 93.5% [middle of 4 runs] and the viability, T/C (compound 0.316 µM) was 88.9% [middle of 4 runs]. For the same compound, the viability, T/C (compound 1 µM) was 72.8% [middle of 4 runs] and the IC50 (curve of compound) was over 10 µM.
Work on `C[C@@H](NC(=O)c1ncnc(N)c1Cl)c1ncc(C(=O)Nc2cc(C(F)(F)F)c(Cl)cn2)s1` + CCn1c(-c2cccnc2C(C)OC)c2c3cc(ccc31)N1CCOC(CC(NC(=O)C(C(C)C)N(C)C(=O)C3(F)CCN(C(=O)C#CC(C)(C)N(C)C)CC3)C(=O)N3CCCC(N3)C(=O)OCC(C)(C)C2)C1 yielded an IC50 [1] of over 10 µM, an IC50 [2] of over 10 µM and an IC50 [3] of over 10 µM. For the same compound, the IC50 [4] was over 10 µM, the IC50 [5] was over 10 µM and the IC50 [6] was over 10 µM. It also gave a viability, T/C [7] of 107%, a viability, T/C [8] of 102% and a viability, T/C [9] of 106%. The viability, T/C [10] was 93.6%, the viability, T/C [11] was 92.6% and the viability, T/C [12] was 86.4%. It also gave a viability, T/C [13] of 102%, a viability, T/C [14] of 107% and a viability, T/C [15] of 102%. For the same compound, the viability, T/C [16] was 94.6%, the viability, T/C [17] was 106% and the viability, T/C [18] was 80.3%. For the same compound, the viability, T/C [19] was 102%, the viability, T/C [20] was 110% and the viability, T/C [21] was 103%. For the same compound, the viability, T/C [22] was 105%, the viability, T/C [23] was 96.5% and the viability, T/C [24] was 89%. It also gave a viability, T/C [25] of 102%, a viability, T/C [26] of 120% and a viability, T/C [27] of 106%. For the same compound, the viability, T/C [28] was 105%, the viability, T/C [29] was 107% and the viability, T/C [30] was 94.6%. For the same compound, the viability, T/C [31] was 102%, the viability, T/C [32] was 111% and the viability, T/C [33] was 105%. The viability, T/C [34] was 96.5%, the viability, T/C [35] was 104% and the viability, T/C [36] was 76.1%. It also gave a viability, T/C [37] of 97.5%, a viability, T/C [38] of 118% and a viability, T/C [39] of 111%. For the same compound, the viability, T/C [40] was 108%, the viability, T/C [41] was 106% and the viability, T/C [42] was 79.2%.
With `CC(C)n1nc(-c2ccc3oc(N)nc3c2)c2c(N)ncnc21` the viability, T/C (compound 0.000316 µM) was 106% [middle of 4 runs], the viability, T/C (compound 0.001 µM) was 91.4% [middle of 4 runs] and the viability, T/C (compound 0.00316 µM) was 89% [middle of 4 runs]. For the same compound, the viability, T/C (compound 0.01 µM) was 65.8% [middle of 4 runs], the viability, T/C (compound 0.0316 µM) was 42.8% [middle of 4 runs] and the viability, T/C (compound 0.1 µM) was 23.6% [middle of 4 runs]. The IC50 (curve of compound) was 22.7 nM [middle of 4 runs].
With `CC(C)NCC(C(=O)N1CCN(c2ncnc3c2C(C)CC3O)CC1)c1ccc(Cl)cc1` (stereo not given) + CCn1c(-c2cc(N3CCN(C)CC3)cnc2C(C)OC)c2c3cc(ccc31)-c1csc(n1)CC(NC(=O)C1CC1C)C(=O)N1CCCC(N1)C(=O)OCC(C)(C)C2 the IC50 [1] was under 0.0316 µM, the IC50 [2] was under 0.0316 µM and the IC50 [3] was under 0.0316 µM. It also gave an IC50 [4] of under 0.0316 µM, an IC50 [5] of under 0.0316 µM and an IC50 [6] of under 0.0316 µM. The viability, T/C [7] was 40.8%, the viability, T/C [8] was 36.3% and the viability, T/C [9] was 29.3%. The viability, T/C [10] was 23.7%, the viability, T/C [11] was 18.2% and the viability, T/C [12] was 16.4%. For the same compound, the viability, T/C [13] was 22.7%, the viability, T/C [14] was 21.8% and the viability, T/C [15] was 17.9%. It also gave a viability, T/C [16] of 14.6%, a viability, T/C [17] of 11.9% and a viability, T/C [18] of 8.84%. For the same compound, the viability, T/C [19] was 15.5%, the viability, T/C [20] was 16.6% and the viability, T/C [21] was 15.6%. For the same compound, the viability, T/C [22] was 14%, the viability, T/C [23] was 10.2% and the viability, T/C [24] was 7.3%. It also gave a viability, T/C [25] of 11.7%, a viability, T/C [26] of 13.6% and a viability, T/C [27] of 12.6%. The viability, T/C [28] was 10.5%, the viability, T/C [29] was 7.29% and the viability, T/C [30] was 6.75%. For the same compound, the viability, T/C [31] was 10.1%, the viability, T/C [32] was 9.26% and the viability, T/C [33] was 7.76%. The viability, T/C [34] was 7.82%, the viability, T/C [35] was 7.22% and the viability, T/C [36] was 6.12%. The viability, T/C [37] was 8.98%, the viability, T/C [38] was 7.69% and the viability, T/C [39] was 8.06%. The viability, T/C [40] was 7.28%, the viability, T/C [41] was 6.22% and the viability, T/C [42] was 5.13%.
With `CC(C)NCC(C(=O)N1CCN(c2ncnc3c2C(C)CC3O)CC1)c1ccc(Cl)cc1` (stereo not given) the viability, T/C (compound 0.0316 µM) was 104% and 101% (2×) and 98.3%, the viability, T/C (compound 0.1 µM) was 100% [middle of 4 runs] and the viability, T/C (compound 0.316 µM) was 94.8% [middle of 4 runs]. The viability, T/C (compound 1 µM) was 86.2% [middle of 4 runs], the viability, T/C (compound 3.16 µM) was 77.1% [middle of 4 runs] and the viability, T/C (compound 10 µM) was 52.3% [middle of 4 runs]. For the same compound, the IC50 (curve of compound) was > 10 µM and 8.61 µM.
`CC1(O)CCCC1n1c(=O)c(C(F)F)cc2cnc(NC3CCN(S(C)(=O)=O)CC3)nc21` (stereo not given) + CCn1c(-c2cc(N3CCN(C)CC3)cnc2C(C)OC)c2c3cc(ccc31)-c1csc(n1)CC(NC(=O)C1CC1C)C(=O)N1CCCC(N1)C(=O)OCC(C)(C)C2 was tested, and the IC50 [1] was under 0.0316 µM, the IC50 [2] was under 0.0316 µM and the IC50 [3] was under 0.0316 µM. The IC50 [4] was under 0.0316 µM, the IC50 [5] was under 0.0316 µM and the IC50 [6] was under 0.0316 µM. The viability, T/C [7] was 32.3%, the viability, T/C [8] was 24.5% and the viability, T/C [9] was 18.9%. It also gave a viability, T/C [10] of 21.9%, a viability, T/C [11] of 27.9% and a viability, T/C [12] of 14%. It also gave a viability, T/C [13] of 18.5%, a viability, T/C [14] of 15.5% and a viability, T/C [15] of 13.4%. It also gave a viability, T/C [16] of 11.9%, a viability, T/C [17] of 14.7% and a viability, T/C [18] of 9.44%. It also gave a viability, T/C [19] of 14.6%, a viability, T/C [20] of 12.9% and a viability, T/C [21] of 11.6%. For the same compound, the viability, T/C [22] was 10.3%, the viability, T/C [23] was 11% and the viability, T/C [24] was 8.01%. The viability, T/C [25] was 11.8%, the viability, T/C [26] was 9.04% and the viability, T/C [27] was 9.94%. It also gave a viability, T/C [28] of 9.99%, a viability, T/C [29] of 9.98% and a viability, T/C [30] of 8.86%. The viability, T/C [31] was 7.96%, the viability, T/C [32] was 8.33% and the viability, T/C [33] was 7.56%. It also gave a viability, T/C [34] of 9.28%, a viability, T/C [35] of 11.6% and a viability, T/C [36] of 8.42%. It also gave a viability, T/C [37] of 7.72%, a viability, T/C [38] of 7.59% and a viability, T/C [39] of 7.36%. The viability, T/C [40] was 7.64%, the viability, T/C [41] was 9.08% and the viability, T/C [42] was 7.54%.
